Laboratory results from PubChem BioAssay (NCI).
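GI50 marks 50% less growth. TGI: concentration producing complete growth inhibition.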

Assays:
Test in all cases: NCI tumour cell line growth inhibition, 384-well format
PC-3 prostate = tested on: PC-3 prostate
ACHN renal = tested on: ACHN renal
SF-539 CNS = tested on: SF-539 CNS
HCT-116 colon = tested on: HCT-116 colon
SF-268 CNS = tested on: SF-268 CNS
M14 melanoma = tested on: M14 melanoma
IGROV1 ovarian = tested on: IGROV1 ovarian
KM12 colon = tested on: KM12 colon
COLO 205 colon = tested on: COLO 205 colon
NCI-H322M lung = tested on: NCI-H322M lung
MDA-MB-231 breast = tested on: MDA-MB-231 breast
A498 renal = tested on: A498 renal
SK-MEL-5 melanoma = tested on: SK-MEL-5 melanoma

## Cn1cc(-c2ccc3c(c2)CCN3C(=O)Cc2cccc(C(F)(F)F)c2)c2c(N)ncnc21
PC-3 prostate
  GI50: 9.2 µM
  TGI: 22.6 µM
ACHN renal
  GI50: 2.25 µM
  TGI: 19.8 µM
SF-539 CNS
  GI50: 6.09 µM
  TGI: 19.2 µM
HCT-116 colon
  GI50: 4.12 µM
  TGI: 17.1 µM
SF-268 CNS
  GI50: 9.26 µM
  TGI: 23.8 µM
M14 melanoma
  GI50: 5.69 µM
  TGI: 21.5 µM
IGROV1 ovarian
  GI50: 5.29 µM
  TGI: 49.9 µM
KM12 colon
  GI50: 0.547 µM
  TGI: 18.2 µM
COLO 205 colon
  GI50: 7.33 µM
  TGI: 21 µM
NCI-H322M lung
  GI50: 5.96 µM
  TGI: 27.7 µM
MDA-MB-231 breast
  GI50: 4.91 µM
  TGI: 15.6 µM
A498 renal
  GI50: 0.967 µM
  TGI: 17.7 µM
SK-MEL-5 melanoma
  GI50: 3.86 µM
  TGI: 9.56 µM
